Source: paper PMC4301037, “Identification and Structure–Function Analysis of Subfamily Selective G Protein-Coupled Receptor Kinase Inhibitors” (ACS Chemical Biology, 2014)
Where two headings read alike, the source gives them in different places.

Experiments:
PKA = target: T1, PKA (Mus musculus, UniProt P05132); assay: PKA inhibition assay (ADP-Glo, CREBtide, 100 μM ATP); format: biochemical; conditions: logarithm of IC50 (−3.3 corresponds to 0.5 mM, footnote c); 438 nM PKA, 100 μM ATP, CREBtide; read-out: PKA log IC50 (converted)
T1 construct: His tag (inferred from pET15b vector and Ni-NTA column) (N); host or cells: E. coli Rosetta(DE3)pLysS

GRK1 [1] = target: T2, GRK1 (Bos taurus, UniProt P28327); assay: DSF retest (confirmation), GRK1; format: binding, bovine; conditions: for GRK1 Tm: 0.2 mg mL^–1 kinase; for GRK1 ΔTm: relative to intrinsic melting point of the kinase
T2 construct: Bovine GRK1_1–535, bovine and human GRK2S670A; made in house
T2 sequence (P28327 1-535): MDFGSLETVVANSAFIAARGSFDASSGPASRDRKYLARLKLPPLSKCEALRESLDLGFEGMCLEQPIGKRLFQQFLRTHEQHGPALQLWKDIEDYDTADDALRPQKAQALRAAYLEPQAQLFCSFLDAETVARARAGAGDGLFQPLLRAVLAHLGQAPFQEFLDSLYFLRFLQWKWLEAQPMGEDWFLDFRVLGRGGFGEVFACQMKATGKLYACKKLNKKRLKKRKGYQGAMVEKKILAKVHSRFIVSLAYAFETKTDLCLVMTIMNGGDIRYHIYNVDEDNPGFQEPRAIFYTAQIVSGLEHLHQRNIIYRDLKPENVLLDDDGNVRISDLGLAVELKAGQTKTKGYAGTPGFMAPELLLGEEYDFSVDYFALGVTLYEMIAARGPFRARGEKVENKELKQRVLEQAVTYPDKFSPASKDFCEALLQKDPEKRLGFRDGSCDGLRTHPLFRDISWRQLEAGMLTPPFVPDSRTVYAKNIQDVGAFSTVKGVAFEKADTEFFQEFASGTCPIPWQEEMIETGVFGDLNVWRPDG

protein kinase A (PKA) = target: T3, protein kinase A (PKA) (Mus musculus, UniProt P05132); assay: DSF retest (confirmation), PKA; format: binding; conditions: for PKA Tm: 0.2 mg mL^–1 kinase; for PKA ΔTm: relative to intrinsic melting point of the kinase
T3 construct: His tag (inferred from pET15b vector and Ni-NTA column) (N); host or cells: E. coli Rosetta(DE3)pLysS
Method: Fourteen compounds (Figure 1a–c), including all GRK2 hits except staurosporine, and the most stabilizing pyrrolopyrimidine-containing compounds were obtained from GSK and retested using DSF on GRKs representing each vertebrate subfamily (GRK1, 2, and 5) (Table 1). […] The ability of these compounds to shift the Tm of the related AGC family kinase member protein kinase A (PKA) was also assessed (Table 1). In no case was ΔTm greater for PKA than for one of the tested GRKs. […]. There was no correlation for GRK1 (Figure 2c).
DSF was conducted using a ThermoFluor plate reader (Johnson & Johnson) in a buffer containing 20 mM HEPES, pH 7.0, 5 mM MgCl2, 2 mM DTT, and 1 mM CHAPS with 0.2 mg mL^–1 final concentration of GRK or PKA and 100 μM 1-anilinonaphthalene-8-sulfonic acid.[14]

bovine GRK5 = target: T4, bovine GRK5 (Bos taurus, UniProt P43249); assay: Primary DSF inhibitor screen, GRK5; format: binding; conditions: 10 μM compound; for ΔTm, primary screen, GRK5 / ΔTm at 10 µM: 2 μM kinase, relative to DMSO control; for ΔTm at 10 µM: read-out: ΔTm, primary screen, GRK5; for rank in the primary screen, GRK5: rank ordering of compounds in primary DSF screen
T4 construct: when using full-length kinases as the receptor[37] instead of isolated kinase domains; made in house
T4 sequence (P43249 whole entry, the tested form may be a part): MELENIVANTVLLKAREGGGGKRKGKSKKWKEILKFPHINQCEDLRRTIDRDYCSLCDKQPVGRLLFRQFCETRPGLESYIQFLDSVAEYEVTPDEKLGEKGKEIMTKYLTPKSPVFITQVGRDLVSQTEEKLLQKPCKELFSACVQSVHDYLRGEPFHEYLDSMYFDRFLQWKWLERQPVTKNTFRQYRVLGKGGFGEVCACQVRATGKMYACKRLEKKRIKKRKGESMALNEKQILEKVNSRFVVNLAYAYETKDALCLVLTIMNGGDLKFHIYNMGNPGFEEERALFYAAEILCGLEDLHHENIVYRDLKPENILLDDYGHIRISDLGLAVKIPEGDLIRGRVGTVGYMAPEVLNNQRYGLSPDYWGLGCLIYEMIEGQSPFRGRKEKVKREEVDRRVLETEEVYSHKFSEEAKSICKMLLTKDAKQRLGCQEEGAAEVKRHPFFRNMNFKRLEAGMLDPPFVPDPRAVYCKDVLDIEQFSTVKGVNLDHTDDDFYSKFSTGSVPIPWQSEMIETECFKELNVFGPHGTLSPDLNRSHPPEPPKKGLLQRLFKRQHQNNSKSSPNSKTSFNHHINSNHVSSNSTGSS

GRK1, 2, and 5 and PKA = assay: Ssel selectivity score calculated from inhibition of GRK1, 2, 5 and PKA
GRK5 [2] = target: T5, GRK5 (Bos taurus, UniProt P43249); assay: DSF retest (confirmation), GRK5; format: binding, bovine; conditions: for GRK5 Tm: 0.2 mg mL^–1 kinase; for GRK5 ΔTm: relative to intrinsic melting point of the kinase
T5 construct: when using full-length kinases as the receptor[37] instead of isolated kinase domains; made in house
T5 sequence (P43249 whole entry, the tested form may be a part): as above

GRK1 [3] = target: T2, GRK1; assay: In vitro phosphorylation assay (tubulin, 5 μM ATP), GRK1; format: biochemical, bovine; conditions: for IC50: read-out: GRK1 log IC50 (converted)
GRK5 [4] = target: T5, GRK5; assay: In vitro phosphorylation assay (tubulin, 5 μM ATP), GRK5; format: biochemical, bovine; conditions: for IC50: read-out: GRK5 log IC50 (converted)
GRK2 [5] = target: T6, GRK2 (Bos taurus, UniProt P21146, S670A); assay: In vitro phosphorylation assay (tubulin, 5 μM ATP), GRK2; format: biochemical, bovine; conditions: for IC50: read-out: GRK2 log IC50 (converted)
T6 construct: made in house
T6 sequence (P21146 1-689 S670A): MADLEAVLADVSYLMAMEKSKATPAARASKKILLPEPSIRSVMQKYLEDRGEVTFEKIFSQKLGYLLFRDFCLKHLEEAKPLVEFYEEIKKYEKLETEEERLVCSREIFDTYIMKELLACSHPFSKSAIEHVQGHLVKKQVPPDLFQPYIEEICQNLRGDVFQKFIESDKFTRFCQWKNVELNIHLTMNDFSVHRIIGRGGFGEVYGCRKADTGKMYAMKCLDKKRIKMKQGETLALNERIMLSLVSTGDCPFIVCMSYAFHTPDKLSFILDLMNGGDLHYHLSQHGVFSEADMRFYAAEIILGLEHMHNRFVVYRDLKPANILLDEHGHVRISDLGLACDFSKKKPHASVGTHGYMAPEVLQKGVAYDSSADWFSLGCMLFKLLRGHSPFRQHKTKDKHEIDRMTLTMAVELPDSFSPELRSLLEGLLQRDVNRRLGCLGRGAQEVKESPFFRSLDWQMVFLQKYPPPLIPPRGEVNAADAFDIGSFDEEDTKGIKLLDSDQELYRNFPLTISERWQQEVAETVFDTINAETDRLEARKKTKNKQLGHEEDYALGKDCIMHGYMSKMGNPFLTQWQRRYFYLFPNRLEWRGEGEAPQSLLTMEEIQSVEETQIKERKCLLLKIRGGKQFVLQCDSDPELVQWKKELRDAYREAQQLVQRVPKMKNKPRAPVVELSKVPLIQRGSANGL

GRK2 [6] = target: T7, GRK2 (Homo sapiens, UniProt P25098, S670A); assay: DSF retest (confirmation), GRK2; format: binding; conditions: for GRK2 Tm: 0.2 mg mL^–1 kinase; for GRK2 ΔTm: relative to intrinsic melting point of the kinase
T7 construct: made in house
T7 sequence (P25098 1-689 S670A): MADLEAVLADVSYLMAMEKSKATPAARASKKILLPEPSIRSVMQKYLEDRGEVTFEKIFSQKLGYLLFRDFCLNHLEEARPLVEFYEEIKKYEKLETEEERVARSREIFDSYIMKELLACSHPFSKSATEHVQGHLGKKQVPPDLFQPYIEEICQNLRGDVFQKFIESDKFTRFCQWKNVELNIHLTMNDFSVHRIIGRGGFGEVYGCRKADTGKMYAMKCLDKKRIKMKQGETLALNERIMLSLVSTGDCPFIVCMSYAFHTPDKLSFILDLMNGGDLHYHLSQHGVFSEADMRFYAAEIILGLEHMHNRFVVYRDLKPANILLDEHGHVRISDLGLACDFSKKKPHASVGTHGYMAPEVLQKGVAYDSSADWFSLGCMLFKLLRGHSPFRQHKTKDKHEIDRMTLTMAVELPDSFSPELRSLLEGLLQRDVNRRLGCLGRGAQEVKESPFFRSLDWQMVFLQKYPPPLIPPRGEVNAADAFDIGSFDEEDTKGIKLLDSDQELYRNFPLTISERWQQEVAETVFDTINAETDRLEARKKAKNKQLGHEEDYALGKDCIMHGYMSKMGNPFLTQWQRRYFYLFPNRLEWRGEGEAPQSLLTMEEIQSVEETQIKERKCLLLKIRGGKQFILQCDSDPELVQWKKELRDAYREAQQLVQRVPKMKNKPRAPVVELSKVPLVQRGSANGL

224 kinases = tested on: 224 kinases; parameters: method as in ChEMBL database; conditions: ref ChEMBL database; cited from earlier work
[7] = selectivity score from inhibition of GRK1, 2, 5 and PKA, <0.5 selective

IC50 (PKA) [µM] | GRK1 Tm (GRK1 [1]) [°C] | GRK1 ΔTm (GRK1 [1]) [°C] | PKA Tm (protein kinase A (PKA)) [°C] | PKA ΔTm (protein kinase A (PKA)) [°C] | ΔTm, primary screen, GRK5 (bovine GRK5) [°C] | ΔTm at 10 µM (bovine GRK5) [°C] | rank in the primary screen, GRK5 (bovine GRK5) | GRK5 Tm (GRK5 [2]) [°C] | GRK5 ΔTm (GRK5 [2]) [°C] | IC50 (GRK1 [3]) [µM] | IC50 (GRK5 [4]) [µM] | GRK5 fold (increase in potency relative to paroxetine) (GRK5 [4]) [fold] | GRK1 fold (increase in potency relative to paroxetine) (GRK1 [3]) [fold] | IC50 (GRK2 [5]) [µM] | GRK2 Tm (GRK2 [6]) [°C] | GRK2 ΔTm (GRK2 [6]) [°C] | SMILES | Ssel (GRK1, 2, and 5 and PKA; [7]) | also measured
> 501 | 26.3 | 6.4 | 48.5 | 3.1 | 9.2 | 9.25 | 4 | 33.0 | 6.3 | 0.126 | – | – | – | – | – | – | COc1cc2c(cc1Nc1nc(Nc3ccsc3C(N)=O)c3cc[nH]c3n1)N(C(=O)CN(C)C)CCC2(C)C [GSK2163632A] | 0.199 | –
> 501 | 28.6 | 8.7 | 45.4 | 0.0 | 6.9 | 6.87 | 13 | 30.5 | 3.8 | 10 | 6.31 | 20 | 40 | 200 | 38.8 | 1.2 | CNC(=O)c1ncccc1Nc1nc(Nc2cc3c(cc2OC)CCCN3C(=O)CN(C)C)nc2[nH]ccc12 [GSK2220400A] | 0.770 | lower potency against GRK1 (GRK1 [3]; relative to GSK2163632A): 100 fold; GRK2 fold (increase in potency relative to paroxetine) (GRK2 [5]; relative to paroxetine): 0.0063 fold
> 501 | 24.8 | 4.9 | 47.7 | 2.3 | – | 6.71 | 15 | 28.7 | 2.0 | 1000 | 25.1 | 5.0 | 0 | > 1000 | 40.4 | 2.8 | CC(C)COC(=O)c1ccc2c(c1)/C(=C/Nc1ccc(S(N)(=O)=O)cc1)C(=O)N2 [GW416981X] | 0.330 | inhibition pattern in kinase cross-screening, in words (224 kinases): strong inhibition of many of the 221 kinases evaluated

SMILES | IC50 (PKA) [µM] | GRK1 Tm (GRK1 [1]) [°C] | GRK1 ΔTm (GRK1 [1]) [°C] | PKA Tm (protein kinase A (PKA)) [°C] | PKA ΔTm (protein kinase A (PKA)) [°C] | ΔTm, primary screen, GRK5 (bovine GRK5) [°C] | ΔTm at 10 µM (bovine GRK5) [°C] | rank in the primary screen, GRK5 (bovine GRK5) | GRK5 Tm (GRK5 [2]) [°C] | GRK5 ΔTm (GRK5 [2]) [°C] | IC50 (GRK1 [3]) [µM] | IC50 (GRK5 [4]) [µM] | GRK5 fold (increase in potency relative to paroxetine) (GRK5 [4]) [fold] | GRK1 fold (increase in potency relative to paroxetine) (GRK1 [3]) [fold] | IC50 (GRK2 [5]) [µM] | GRK2 Tm (GRK2 [6]) [°C] | GRK2 ΔTm (GRK2 [6]) [°C] | Ssel (GRK1, 2, and 5 and PKA; [7]) | also measured
Fc1ccc([C@@H]2CCNC[C@H]2COc2ccc3c(c2)OCO3)cc1 [paroxetine] | > 501 | – | – | 50.1 | 4.7 | – | – | – | – | – | – | – | – | – | – | – | – | – | Ssel (GRK1, 2, and 5 and PKA): 0.085
